Data as given in patent US20060052415A1, “N-{2-chloro-4-[(6,7-dimethoxy-4-quinolyl)oxy]phenyl}-n'-(5-methyl-3-isoxazolyl)urea salt in crystalline form” (KIRIN BEER KABUSHIKI KAISHA, priority 2002, published 2006).
“Also recorded” adds a separate entry of the source.

Assays:
[1] = Stability of crystal against physical stress (grinding in a mortar); assay type: physicochemical; settings: ground in an agate or porcelain mortar, hydrochloride
Description: (§1) X-ray diffraction patterns of crystals were taken using Cu-Kα radiation (40 kV, 40 mA, λ=1.541 angstroms) with a powder X-ray diffraction apparatus (X-ray diffraction RINT DMAX-2000, manufactured by Rigaku Industrial Corporation) (scanning speed: 5 degrees/min, scanning range: 5.000 to 40.000 degrees, filter: Kβ filter). Based on powder X-ray diffraction patterns thus obtained, peak positions and relative intensity (%) were determined for peaks with a relative intensity of not less than 20%.
Stability of Crystal Against Physical Stress
Each of form I to III crystals of hydrochloride, form I crystal of nitrate, form I and II crystals of sulfate, form I crystal of methanesulfonate, form I and II crystals of p-toluenesulfonate, and form I and II crystals of maleate of N-{2-chloro-4-[(6,7-dimethoxy-4-quinolyl)oxy]phenyl}-N′-(5-methyl-3-isoxazolyl)urea was ground in a mortar. In grinding each crystal in the mortar, about 1 mg of each crystal sample was placed and ground in an agate mortar or a porcelain mortar. For each sample before and after grinding, a powder X-ray diffraction chart was measured by method 1 to evaluate the stability of the crystal against physical stress.

[2] = Hygroscopicity of crystal (weight change on storage); assay type: physicochemical; settings: 40° C. and 75% RH, hydrochloride; for hygroscopicity (level, in words): 2 weeks, based on weight change
Description: Hygroscopicity of Crystal
(§2) Form I to III crystals of hydrochloride, form I crystal of nitrate, form I and II crystals of sulfate, form I crystal of methanesulfonate, form I and II crystals of p-toluenesulfonate, and form I and II crystals of maleate of N-{2-chloro-4-[(6,7-dimethoxy-4-quinolyl)oxy]phenyl}-N′-(5-methyl-3-isoxazolyl)urea were stored under conditions of 40° C. and 75% RH for 2 weeks. Before and after the storage, the weight of each crystal was measured to determine a difference in weight between before the storage and after the storage.
For each crystal, the hygroscopicity was evaluated based on the weight change.

[3] = Stability of crystal under high humidity (40° C., 75% RH) conditions; assay type: physicochemical; settings: stored at 40° C. and 75% RH for 2 weeks, hydrochloride
Description: as §1
Stability of Crystal Under High Humidity (40° C., 75% RH) Conditions
as §2, with “Before and after the storage, the weight of each crystal was measured to determine a difference in weight between before the storage and after the storage.” left out

[4] = Stability of crystal under heating (73° C.) conditions; assay type: physicochemical; settings: stored at 73° C. for 2 weeks, hydrochloride
Description: as §1
Stability of Crystal Under Heating (73° C.) Conditions
Form I to III crystals of hydrochloride, form I crystal of nitrate, form I and II crystals of sulfate, form I crystal of methanesulfonate, form I and II crystals of p-toluenesulfonate, and form I and II crystals of maleate of N-{2-chloro-4-[(6,7-dimethoxy-4-quinolyl)oxy]phenyl}-N′-(5-methyl-3-isoxazolyl)urea were stored at 73° C. for 2 weeks. […]

[5] = Suspending crystal in aqueous methylcellulose solution (administration solution for rodents); assay type: physicochemical
Text: In the most preferred embodiment of the present invention, the crystal of a salt according to the present invention is form I crystal of N-{2-chloro-4-[(6,7-dimethoxy-4-quinolyl)oxy]phenyl}-N′-(5-methyl-3-isoxazolyl)urea hydrochloride. This form I crystal of hydrochloride has all physicochemical properties that are desired as pharmaceutical preparations for oral administration. The powder X-ray diffraction pattern of form I crystal of hydrochloride is not similar to that of other crystalline forms of hydrochloride (for example, form II crystal and form III crystal). Therefore, the mixing ratio of crystalline forms can be easily determined. […] Therefore, problems with administration are less likely to occur. Also in this respect, form I crystal of hydrochloride is advantageous.

tumor = settings: in vivo; cited from earlier work
[6] = listed as form I crystal of hydrochloride
[7] = listed as form III crystal of hydrochloride

| Compound | stability of crystal against physical stress (powder X-ray diffraction before and after grinding) [1, 6] | hygroscopicity (level, in words) [2] | weight change (hygroscopicity) After 1 week [2] | weight change (hygroscopicity) After 2 weeks [2] | weight change (hygroscopicity) After 2 days [2] | stability of crystal under high humidity conditions (change of powder X-ray diffraction chart) [3, 6] | stability of crystal under high temperature conditions (change of powder X-ray diffraction chart) [4, 6] | formation of gel on suspending [5] | stability of crystal against physical stress (powder X-ray diffraction before and after grinding) [1, 7] | stability of crystal under high humidity conditions (change of powder X-ray diffraction chart) [3, 7] | stability of crystal under high temperature conditions (change of powder X-ray diffraction chart) [4, 7] | tumor enhancement inhibitory activity (tumor) |
| --- | --- | --- | --- | --- | --- | --- | --- | --- | --- | --- | --- | --- |
| COc1cc2nccc(Oc3ccc(NC(=O)Nc4cc(C)on4)c(Cl)c3)c2cc1OC.Cl [Form I crystal of hydrochloride, N-{2-chloro-4-[(6,7-dimethoxy-4-quinolyl)oxy]phenyl}-N′-(5-methyl-3-isoxazolyl)urea hydrochloride] | excellent stability | low level of hygroscopicity; also recorded: on a low level | 0.01% | 0.00% | 0.00% | excellent stability | excellent stability | does not undergo a deterioration that results in the formation of gel | – | – | – | – |
| COc1cc2nccc(Oc3ccc(NC(=O)Nc4cc(C)on4)c(Cl)c3)c2cc1OC.Cl [Form III crystal of hydrochloride, N-{2-chloro-4-[(6,7-dimethoxy-4-quinolyl)oxy]phenyl}-N′-(5-methyl-3-isoxazolyl)urea hydrochloride] | – | highly hygroscopic | 1.49% | 1.93% | 1.06% | – | – | – | lowering in peak intensity | converted to form I crystal | converted to form II crystal | – |
| COc1cc2nccc(Oc3ccc(NC(=O)Nc4cc(C)on4)c(Cl)c3)c2cc1OC [N-{2-chloro-4-[(6,7-dimethoxy-4-quinolyl)oxy]phenyl}-N′-(5-methyl-3-isoxazolyl)urea] | – | – | – | – | – | – | – | – | – | – | – | has tumor enhancement inhibitory activity in vivo |
